# From patent US7910624B1, “Compositions for the treatment of blood disorders” (The Trustees of Boston University, priority 1995, dated 2011)
# Tests used:
# [1] = test system: bone marrow cells; conditions: continuous intravenous administration; cited from earlier work
# [2] = test system: erythroid progenitor cells cultured from human cord blood; test: Fetal globin expression in human cell cultures (3H-leucine labelled globin chains, densitometry); type: cell-based
# Procedure: Compositions were tested for activity in inducing fetal globin expression and protein production in erythroid progenitor cells cultured from human cord blood and analyzed as described by S. P. Perrine et al. (Blood 74: 454-60, 1989). Briefly, mononuclear cells were cultured in IMDM with 30% fetal calf serum and 2 units erythropoietin per ml to induce erythroid differentiation. Colonies were harvested on day 12-13, incubated with radio-labelled (^3H) leucine, and further incubated in leucine-free media, still in the presence of compounds, overnight. Globin composition in the erythroid cells was analyzed by laser densitometry of electrophoretically separated globin chains stained with Coomassie blue, and by autoradiography. Treated cells were incubated for 12-13 days (Table 2, Experiments A and B) or overnight (Table 2, Experiment C) in the presence of the indicated compounds and compared to untreated control cells cultured from the same human subject.
# [3] = test system: erythroid cells (peripheral blood cells); test: Erythroid cell viability by Calcein-AM fluorescent staining (FIG. 2); type: cell-based; conditions: 0.5 mM
# Procedure: Compositions were tested for the ability to directly stimulate erythroid cell growth. Cell growth stimulation is a useful property for an agent to be used to treat anemias and distinguishes such agents from the cytotoxic drugs currently being tested for treatment of hemoglobinopathies. Cell viability analyses were performed using fluorescent staining to detect living cells. Cells were in log phase of growth in 6-well dishes when used in proliferation assays. For enumeration of living cells, wells were washed once with medium to remove nonadherent or dead cells. Remaining live cells were labeled with 2 μM 2′,7′-bis-(carboxyethyl)-5-(and 6)-carboxy-fluorescein acetoxy-methyl ester (Calcein-AM) (Molecular Probes; Eugene, Oreg.) for 20 minutes at 37° C. and washed once. Fluorescence intensity of live cells was read on a CytoFluor 2300 Fluorescence Plate Scanner (Millipore; Bedford, Mass.) at excitation and emission wavelengths of 485 and 530 nm, respectively. The fluorescence intensity of a well was proportional to the number of living cells in the well. Background fluorescence was measured separately for each plate and subtracted from all readings. Each experiment was performed in triplicate or quadruplicate. The standard deviation (SD) of repetitive readings was less than 30% of the mean. Results are depicted in FIG. 2.
# [4] = test system: BFU-e (burst forming unit-erythroid) colonies from peripheral blood mononuclear cells; test: Stimulation of erythroid proliferation in cell cultures (BFU-e colony growth); type: cell-based, human; conditions: 0.1 mM; 13-14 days; compared with control cultures
# Procedure: Peripheral blood was collected from normal volunteers and patients with anemia due to sickle cell disease or thalassemia. Mononuclear cells were isolated by Ficoll-Hypaque (Pharmacia Biotech; Piscataway, N.J.) centrifugation and cultured in Iscove's Modified Dulbecco's Media (IMDM; GIBCO/BRL; Grand Island, N.Y.) supplemented with 10% fetal calf serum, 300 μg/ml glutamine, 3 units/ml IL-3 (Amgen; Thousand Oaks, Calif.), and 2 units/ml erythropoietin (Terry Fox Labs; Vancouver, B.C.). Chemical compounds were obtained from Sigma Chemical (St. Louis, Mo.) or Aldrich Chemical (Milwaukee, Wis.), unless otherwise indicated, and formulated into pharmaceutical compositions by dissolving in aqueous solutions of media or sterile water pH adjusted to about 7.4. Solutions were sterilized by passage at least once through 0.22 micron Nalgene filters and added to cell cultures at final concentrations that are pharmaceutically achievable in vivo (typically between about 0.1 mM to 2.0 mM). Cells were incubated with compounds for between 13-14 days at 37° C. in humidified 5% CO2, and fed and passed, as necessary. Colony growth, proportion of fetal globin-expressing cells and amounts of fetal globin production were assayed. Results are presented in Table 1 as BFU-e stimulation (colony growth).
# [5] = test system: human erythroid cell line K562; test: Cell viability / growth of K562 by Calcein-AM fluorescence; type: cell-based; conditions: 0.5 mM; over 3 days
# Procedure: Such activities might limit their utility for treatment of anemias such as occur in thalassemia, but alternatively would be useful for anticancer effects. To determine cell viability, human erythroid cells were cultured in the presence and absence of these compounds for 4 days and the amount of DNA fragmentation which occurred was measured.
# Cell viability analyses were performed using fluorescent staining to detect living cells. Cells were in log phase of growth in 6-well dishes when used in proliferation assays. For enumeration of living cells, wells were washed once with medium to remove nonadherent or dead cells. Remaining live cells were labeled with Calcein-AM for 20 minutes at 37° C. and washed once. Fluorescence intensity of adherent live cells was read on a CytoFluor 2300 Fluorescence Plate Scanner (Millipore; Bedford, Mass.) at excitation and emission wavelengths of 485 and 530 nm, respectively. The fluorescence intensity of a well was proportional to the number of living cells in the well. Background fluorescence was measured separately for each plate and subtracted from all readings. Each experiment was performed in triplicate or quadruplicate. The standard deviation (SD) of repetitive readings was less than 30% of the mean.
# At higher concentrations, still easily achievable in vivo, arginine butyrate (0.5 mM) and dihydrocinnamic acid (greater than 0.5 mM) inhibited growth of this tumor cell line by approximately 50%. Therefore, these compounds are also useful as anti-tumor agents.
# [6] = test system: anemic juvenile baboons; test: In vivo reticulocyte proliferation and globin expression in phlebotomized anemic baboons; parameters: species or system baboon
# Procedure: Experiments were performed to determine if administration of the chemical compositions could induce fetal globin gene expression in an in vivo model similar to humans (S. P. Perrin et al., Brit. J. Haematol. 88:555-61, 1994). Briefly, chemicals were prepared as sterile pharmaceutical solutions in pH adjusted sterile water. A variety of chemical compositions were administered sequentially to some baboons. After administration of one compound, a wash-out period with no compound administration was maintained until reticulocytes returned to base line prior to administration of the next compound. This was done, at least partly, to compare the magnitude of response which occurred within the same individual animal to different compounds.
# Briefly, juvenile female baboons (2 years old) were catheterized with arterial and venous catheters and phlebotomized gradually every day to maintain a moderate anemia of 7.0 to 7.5 grams hemoglobin/dl. Fetal reticulocytes, the newly produced red blood cells containing fetal globin, were assayed using a monoclonal antibody against fetal globin (HbF) as described by G. Dover et al. (Blood 67:735-38, 1986). Briefly, blood was stained with two antibodies, one specific for reticulocytes and another against fetal globin protein. The amount of antibody bound cells was determined by FACS analysis. Globin chain synthesis was assayed as described by J. B. Clegg et al. (J. Mol. Biol. 19:91-108, 1966). Briefly, reticulocytes were radio-labeled with ^3H-leucine which was incorporated in equal proportions into actively synthesized globin chains. After incubation in leucine-free media, cells were washed, and globin proteins were separated and purified by column chromatography. Radioactivity incorporated into each peak is compared and the ratios of gamma to gamma plus beta globin calculated. Each animal served as its own control with baseline monitoring assays performed for 4-6 weeks before any drug was administered. Phlebotomy was continued daily, so that peripheral HbF levels in the animals were not considered to be accurate over the short treatment time-frames and were not monitored. Safety monitoring was performed by frequent physical examinations, quantitation of food eaten, activity and frequent chemistry and hematology monitoring. Complete blood counts were assayed before, during and after treatment. Results presented were not adjusted to account for the daily phlebotomy.
SMILES,increase in γ globin mRNA of bone marrow cells [1],"Gamma Increase ([2]; Exp. A, 0.1 mM, 12-13 days, above untreated cells) [%]","Gamma Increase ([2]; Exp. C, 0.1 mM, overnight) [%]","Gamma Increase ([2]; Exp. C, 0.2 mM, overnight) [%]","Gamma Increase ([2]; Exp. C, 0.5 mM, overnight) [%]",erythroid cell growth and proliferation compared to untreated controls (FIG. 2) [3],BFU-e Stimulation (colony growth) [4] [%],growth of K562 [5],"fetal reticulocytes after treatment ([6]; infused 4 days, 300 to 500 mg/kg per day, from 10%) [%]","red blood cell count after treatment ([6]; intravenous 1,000 mg/kg/day, 4 days, from 2.3)","total hemoglobin after treatment ([6]; intravenous 1,000 mg/kg/day, 4 days, from 6.6) [grams/dl]","packed red blood cell volume after treatment ([6]; intravenous 1,000 mg/kg/day, 4 days, from 20.9%)"
"Nc1ncn([C@@H]2O[C@H](CO)[C@@H](O)[C@H]2O)c(=O)n1 [AZA, 5-azacytidine]",five- to seven-fold,,,,,,,,,,,
"O=C(O)CCc1ccccc1 [DHC, Dihydrocinnamic acid]",,12.0,24,20.0,19,either had no effect or stimulated erythroid cell growth and proliferation,124,"either did not inhibit, or slightly enhanced growth",17,2.73 ×10^6 cells/μl,7.3,22.7 % of the blood
